Data on 22 compounds can be found in patent publication US20260250272A1, “N-SUBSTITUTED QUINOLINONE COMPOUND, PREPARATION METHOD THEREFOR AND USE THEREOF” (VIGONVITA LIFE SCIENCES CO., LTD., priority 2022, published 2026).

Series [1] can be described thus: Human liver microsome assay. Format: in vitro ADME. The note with it: for half-life at 1 μM / CLint scaled at 1 μM: pH 7.41, human liver microsomes 0.5 mg/mL, compound 1 μM, NADPH 2 mM; for half-life at 1 μM: read-out: Half-life (t1/2, min); for CLint scaled at 1 μM: read-out: Intrinsic clearance (Clint, mL/min/kg). As to the method:
Preparation of magnesium-potassium buffer solution: a 100 mM potassium buffer and 5 mM MgCl2 were preheated together to obtain a magnesium-potassium buffer at a pH of 7.41. Preparation of 0.5 mM working solution: a 10 mM compound stock solution was added to 95 μL of acetonitrile. Preparation of 1.5 μM working solution containing microsomes (0.75 mg/mL): 1.5 μL of the 0.5 mM working solution and 18.75 μL of 20 mg/mL human liver microsome solution were added to 479.75 μL of the magnesium-potassium buffer. Preparation of NADPH stock solution (6 mM, 5 mg/mL): NADPH was dissolved in the magnesium-potassium buffer. 30 μL of 1.5 μM working solution containing 0.75 mg/mL human liver microsomes were added to each of the wells of a 96-well plate, and the plate was pre-incubated at 37° C. for 5 min. For a sample at 0 min, 150 μL of acetonitrile solution containing an internal standard was added, and then 15 μL of NADPH stock solution (6 mM) was added to initiate the reaction. For samples at other time points, 15 μL of NADPH stock solution (6 mM) was directly added to initiate the reaction. Final content of components: compound (1 μM), human liver microsomes (0.5 mg/mL), and NADPH (2 mM). 150 μL of cold stop buffer containing an internal standard was added at time points of 5 min, 15 min, 30 min, and 45 min to stop the sample reaction, the plate was centrifuged at 600 rpm for 10 min and then at 6000 rpm for 15 min, and the supernatant was taken for LC-MS/MS analysis.
A standard curve of the ln residual rate of the drug in the incubation system with respect to the incubation time was plotted by using Excel software, linear regression was performed to obtain a slope k, and the half-life T1/2 (min) and the intrinsic clearance CLint (mL/min/kg) value were calculated according to the following formula: […]
(In general: Microsomes from liver hold many membrane-bound enzymes, among them those of drug oxidation.)

Series [2] is described as follows: Oil solubility test in benzyl benzoate (HPLC). The series is classed as physicochemical. The note with it: organic solvent or mixture, thermodynamic from solid, 25° C., shaken 2 h. As to the method:
The solubility test was performed by quantitative analysis using an external standard method of high-performance liquid chromatography.
Reference sample solution: 10 mg of reference sample was weighed, placed in a 20 mL volumetric flask, diluted to the scale with 80% acetonitrile, and shaken uniformly.
Test sample solution: an appropriate amount of sample was dissolved in benzyl benzoate to obtain a saturated solution. The mixture was placed in a shaker and shaken at 25° C. and 800 rpm for 2 h. The sample solution was filtered, and 100 μL of filtrate was added to a 10 mL volumetric flask, diluted to the scale with 80% acetonitrile, and shaken uniformly.

Structures are written as SMILES. Converted amounts (≈) assume the structure as drawn. A value given as a limit tells only on which side of the number the result lay.

Turning to `CC(C)OC(=O)OCN1C(=O)CCc2ccc(CCN3CCN(c4cc(F)cc5sccc45)CC3)cc21` [Compound 2], in series [1], the half-life at 1 μM worked out at 0.69 min and the CLint scaled at 1 μM stood at 2530 mL/min/kg. Moreover, the solubility at 2 h in series [2] was found to be 75 mg/mL (≈ 143 mM).

As to `CCCCCCCCCCCC(=O)OCN1C(=O)CCc2ccc(CCN3CCN(c4cc(F)cc5sccc45)CC3)cc21` [Compound 3], in series [1], the half-life at 1 μM is 367 min and the CLint scaled at 1 μM was 4.73 mL/min/kg. For the same compound, the solubility at 2 h in series [2] is above 200 mg/mL.

With `CC(=O)OCN1C(=O)CCc2ccc(CCN3CCN(c4cc(F)cc5sccc45)CC3)cc21` [Compound 5], in series [1], the half-life at 1 μM stood at 0.87 min and the CLint scaled at 1 μM worked out at 2000 mL/min/kg. Moreover, the solubility at 2 h in series [2] came to 23.4 mg/mL (≈ 48.7 mM).

In the case of `CCCCC(=O)OCN1C(=O)CCc2ccc(CCN3CCN(c4cc(F)cc5sccc45)CC3)cc21` [Compound 6], in series [1], the half-life at 1 μM was 1 min and the CLint scaled at 1 μM stood at 1720 mL/min/kg. In addition, in series [2], the solubility at 2 h amounted to 166 mg/mL (≈ 317 mM).

As for `CCCCCCCCCC(=O)OCN1C(=O)CCc2ccc(CCN3CCN(c4cc(F)cc5sccc45)CC3)cc21` [Compound 7, (7-(2-(4-(6-fluorobenzo[b]thiophen-4-yl)piperazin-1-yl)ethyl)-2-oxo-3,4-dihydroquinolin-1(2H)-yl)methyl decanoate], the “Metabolic stability in human liver microsomes (in words)” value in series [1] (human liver microsomes) was “good metabolic stability”. In series [1], the half-life at 1 μM turned out to be 30 min and the CLint scaled at 1 μM was found to be 56.8 mL/min/kg. The solubility at 2 h in series [2] is above 200 mg/mL.

With `CCCCCCCCCCCCCCCCC(=O)OCN1C(=O)CCc2ccc(CCN3CCN(c4cc(F)cc5sccc45)CC3)cc21` [Compound 67, (7-(2-(4-(6-Fluorobenzo[b]thiophen-4-yl)piperazin-1-yl)ethyl)-2-oxo-3,4-dihydroquinolin-1(2H)-yl) methyl heptadecanoate], the solubility at 2 h in series [2] was above 200 mg/mL.

Turning to `CCCCCCCCCCCCCCCCCC(=O)OCN1C(=O)CCc2ccc(CCN3CCN(c4cc(F)cc5sccc45)CC3)cc21` [Compound 68, (7-(2-(4-(6-Fluorobenzo[b]thiophen-4-yl)piperazin-1-yl)ethyl)-2-oxo-3,4-dihydroquinolin-1(2H)-yl) methyl stearate], the solubility at 2 h in series [2] was above 200 mg/mL.

Regarding `CCCCCCCCCCCCCCCCCCCC(=O)OCN1C(=O)CCc2ccc(CCN3CCN(c4cc(F)cc5sccc45)CC3)cc21` [Compound 69, (7-(2-(4-(6-Fluorobenzo[b]thiophen-4-yl)piperazin-1-yl)ethyl)-2-oxo-3,4-dihydroquinolin-1(2H)-yl) methyl icosanoate], the solubility at 2 h in series [2] was above 200 mg/mL.

As to `CCCCCCCCCCNC(=O)OCN1C(=O)CCc2ccc(CCN3CCN(c4cc(F)cc5sccc45)CC3)cc21` [Compound 71, (7-(2-(4-(6-Fluorobenzo[b]thiophen-4-yl)piperazin-1-yl)ethyl)-2-oxo-3,4-dihydroquinolin-1(2H)-yl) methyl decylcarbamate], the solubility at 2 h in series [2] is above 200 mg/mL.

With `C=CCCCCCCCCC(=O)OCN1C(=O)CCc2ccc(CCN3CCN(c4cc(F)cc5sccc45)CC3)cc21` [Compound 72, (7-(2-(4-(6-Fluorobenzo[b]thiophen-4-yl)piperazin-1-yl)ethyl)-2-oxo-3,4-dihydroquinolin-1(2H)-yl) methyl undec-10-enoate], the solubility at 2 h in series [2] is above 200 mg/mL.

With `CCCCCCCC/C=C\CCCCCCCC(=O)OCN1C(=O)CCc2ccc(CCN3CCN(c4cc(F)cc5sccc45)CC3)cc21` [Compound 73, (7-(2-(4-(6-Fluorobenzo[b]thiophen-4-yl)piperazin-1-yl)ethyl)-2-oxo-3,4-dihydroquinolin-1(2H)-yl) methyl oleate], in series [2], the solubility at 2 h was above 200 mg/mL.

Consider `CCCCCCCCCCCCCCCCCCCCCC(=O)OCN1C(=O)CCc2ccc(CCN3CCN(c4cc(F)cc5sccc45)CC3)cc21` [Compound 74, (7-(2-(4-(6-fluorobenzo[b]thiophen-4-yl)piperazin-1-yl)ethyl)-2-oxo-3,4-dihydroquinolin-1(2H)-yl)methyl docosanoate], for which the solubility at 2 h in series [2] is above 200 mg/mL.

`CCCCCCCCCCCCCCCCCCCCCCCC(=O)OCN1C(=O)CCc2ccc(CCN3CCN(c4cc(F)cc5sccc45)CC3)cc21` [Compound 75, (7-(2-(4-(6-Fluorobenzo[b]thiophen-4-yl)piperazin-1-yl)ethyl)-2-oxo-3,4-dihydroquinolin-1(2H)-yl) methyl tetracosanoate]: in series [2], the solubility at 2 h was above 200 mg/mL.

With `CCCCCCCCCCCCCCCCCCCCCCCCCCC(=O)OCN1C(=O)CCc2ccc(CCN3CCN(c4cc(F)cc5sccc45)CC3)cc21` [Compound 76, (7-(2-(4-(6-fluorobenzo[b]thiophen-4-yl)piperazin-1-yl)ethyl)-2-oxo-3,4-dihydroquinolin-1(2H)-yl)methyl heptacosanoate], the solubility at 2 h in series [2] is above 200 mg/mL.

`CCCCCCCC/C=C\CCCCCCCC(=O)OCn1c(=O)ccc2ccc(CCN3CCN(c4cc(F)cc5sccc45)CC3)cc21` [Compound 77, (7-(2-(4-(6-Fluorobenzo[b]thiophen-4-yl)piperazin-1-yl)ethyl)-2-oxoquinolin-1(2H)-yl)methyl oleate]: the solubility at 2 h in series [2] is above 200 mg/mL.

Regarding `CCCCC(C)(C)C(=O)OCN1C(=O)CCc2ccc(CCN3CCN(c4cc(F)cc5sccc45)CC3)cc21` [Compound 108, (7-(2-(4-(6-Fluorobenzo[b]thiophen-4-yl)piperazin-1-yl)ethyl)-2-oxo-3,4-dihydroquinolin-1(2H)-yl) methyl 2,2-dimethylhexanoate], the solubility at 2 h in series [2] was above 200 mg/mL.

In the case of `CCCCCC(C)C(=O)OCN1C(=O)CCc2ccc(CCN3CCN(c4cc(F)cc5sccc45)CC3)cc21` (stereo not drawn) [Compound 110, (7-(2-(4-(6-Fluorobenzo[b]thiophen-4-yl)piperazin-1-yl)ethyl)-2-oxo-3,4-dihydroquinolin-1(2H)-yl) methyl 2-methylheptanoate], the solubility at 2 h in series [2] was above 200 mg/mL.

In the case of `CCCCCC(CCCCC)C(=O)OCN1C(=O)CCc2ccc(CCN3CCN(c4cc(F)cc5sccc45)CC3)cc21` [Compound 112, (7-(2-(4-(6-Fluorobenzo[b]thiophen-4-yl)piperazin-1-yl)ethyl)-2-oxo-3,4-dihydroquinolin-1(2H)-yl) methyl 2-pentylheptanoate], the solubility at 2 h in series [2] was above 200 mg/mL.

Consider `CCCCCC(CCCCC)C(=O)OCn1c(=O)ccc2ccc(CCN3CCN(c4cc(F)cc5sccc45)CC3)cc21` [Compound 113, (7-(2-(4-(6-Fluorobenzo[b]thiophen-4-yl)piperazin-1-yl)ethyl)-2-oxoquinolin-1(2H)-yl)methyl 2-pentylheptanoate], for which the solubility at 2 h in series [2] is above 200 mg/mL.

For `C=CCCCCCCCCC(=O)N1C(=O)CCc2ccc(CCN3CCN(c4cc(F)cc5sccc45)CC3)cc21` [Compound 132, 7-(2-(4-(6-Fluorobenzo[b]thiophen-4-yl)piperazin-1-yl)ethyl)-1-(undec-10-enoyl)-3,4-dihydroquinolin-2(1H)-one], the solubility at 2 h in series [2] is above 200 mg/mL.

With `CCCCCCCCCC(=O)OCOC(=O)N1C(=O)CCc2ccc(CCN3CCN(c4cc(F)cc5sccc45)CC3)cc21` [Compound 133, (Decanoyloxy)methyl 7-(2-(4-(6-fluorobenzo[b]thiophen-4-yl)piperazin-1-yl)ethyl)-2-oxo-3,4-dihydroquinoline-1(2H)-carboxylate], the solubility at 2 h in series [2] is above 200 mg/mL.

`CCCCCCCCCCCC(=O)OCn1c(=O)ccc2ccc(CCN3CCN(c4cc(F)cc5sccc45)CC3)cc21` [Compound 134, (7-(2-(4-(6-Fluorobenzo[b]thiophen-4-yl)piperazin-1-yl)ethyl)-2-oxoquinolin-1(2H)-yl)methyl dodecanoate]: the solubility at 2 h in series [2] was above 200 mg/mL.

As usually defined, the solubility is the concentration that dissolves in the medium under given conditions.
